The values below are quoted from earlier work in patent US20230022136A1, “DIFFUSIVITY CONTRAST AGENTS FOR MEDICAL IMAGING” (priority 2020, published 2023).

The conditions of the data set: attributed to increased hydrogen bonding of the water molecules.

Take `CC(/C=C/C=C(\C)C(=O)[O-])=C\C=C\C=C(C)\C=C\C=C(/C)C(=O)[O-].[Na+].[Na+]` [Trans-Sodium crocetinate]: the “increase of the diffusion coefficient of glucose through water” value was 25-30%.
